Reference: the NIST ThermoML archive (doi:10.1016/j.jct.2018.05.027)

Assay: xn = mol fraction of the nth substance listed
Settings: Liquid, Vibrating wire viscometry

Cc1ccc(C)c(C)c1 [1,2,4-trimethylbenzene] + CCC(C)O
viscosity [mPa·s]
Settings | 293.15 K | 313.15 K | 333.15 K | 353.15 K
100 kPa, x2 = 0.3011 | 0.9506 | 0.708 | 0.539 | 0.43
100 kPa, x2 = 0.5001 | 1.108 | 0.7802 | 0.5777 | 0.4439
100 kPa, x2 = 0.7999 | 1.834 | 1.097 | 0.7185 | 0.4963
1000 kPa, x2 = 0.3011 | 0.9531 | 0.7098 | 0.5411 | 0.436
1000 kPa, x2 = 0.5001 | 1.117 | 0.7964 | 0.5881 | 0.4481
1000 kPa, x2 = 0.7999 | 1.863 | 1.131 | 0.7301 | 0.5
5000 kPa, x2 = 0.3011 | 0.9988 | 0.7427 | 0.571 | 0.4507
5000 kPa, x2 = 0.5001 | 1.173 | 0.8335 | 0.6122 | 0.467
5000 kPa, x2 = 0.7999 | 1.964 | 1.187 | 0.7583 | 0.5157
10000 kPa, x2 = 0.3011 | 1.051 | 0.7727 | 0.5928 | 0.4678
10000 kPa, x2 = 0.5001 | 1.235 | 0.8676 | 0.6383 | 0.4891
10000 kPa, x2 = 0.7999 | 2.099 | 1.244 | 0.7963 | 0.5386
20000 kPa, x2 = 0.3011 | 1.137 | 0.8356 | 0.634 | 0.4988
20000 kPa, x2 = 0.5001 | 1.329 | 0.9318 | 0.6899 | 0.5215
20000 kPa, x2 = 0.7999 | 2.326 | 1.363 | 0.8656 | 0.584
30000 kPa, x2 = 0.3011 | 1.238 | 0.9034 | 0.6817 | 0.5358
30000 kPa, x2 = 0.5001 | 1.462 | 1.031 | 0.739 | 0.5615
30000 kPa, x2 = 0.7999 | 2.611 | 1.515 | 0.9569 | 0.6316
40000 kPa, x2 = 0.3011 | 1.334 | 0.9814 | 0.7313 | 0.57
40000 kPa, x2 = 0.5001 | 1.591 | 1.108 | 0.7961 | 0.5952
40000 kPa, x2 = 0.7999 | 2.897 | 1.666 | 1.039 | 0.6809
50000 kPa, x2 = 0.3011 | 1.452 | 1.055 | 0.784 | 0.605
50000 kPa, x2 = 0.5001 | 1.739 | 1.204 | 0.8558 | 0.6372
50000 kPa, x2 = 0.7999 | 3.229 | 1.835 | 1.13 | 0.7349
60000 kPa, x2 = 0.3011 | 1.57 | 1.132 | 0.8388 | 0.645
60000 kPa, x2 = 0.5001 | 1.906 | 1.3 | 0.9176 | 0.6813
60000 kPa, x2 = 0.7999 | 3.561 | 2.005 | 1.219 | 0.7906
70000 kPa, x2 = 0.3011 | 1.702 | 1.224 | 0.8962 | 0.6863
70000 kPa, x2 = 0.5001 | 2.061 | 1.394 | 0.9822 | 0.726
70000 kPa, x2 = 0.7999 | 3.917 | 2.187 | 1.321 | 0.849
80000 kPa, x2 = 0.3011 | 1.851 | 1.303 | 0.9559 | 0.7294
80000 kPa, x2 = 0.5001 | 2.257 | 1.502 | 1.046 | 0.7743
80000 kPa, x2 = 0.7999 | 4.274 | 2.368 | 1.424 | 0.9092
100000 kPa, x2 = 0.3011 | 2.152 | 1.491 | 1.089 | 0.821
100000 kPa, x2 = 0.5001 | 2.62 | 1.716 | 1.196 | 0.871
100000 kPa, x2 = 0.7999 | 5.09 | 2.741 | 1.653 | 1.04
120000 kPa, x2 = 0.3011 | 2.47 | 1.667 | 1.238 | 0.9204
120000 kPa, x2 = 0.5001 | 3.033 | 1.936 | 1.366 | 0.9782
120000 kPa, x2 = 0.7999 | 6.117 | 3.219 | 1.898 | 1.175
140000 kPa, x2 = 0.3011 | 2.838 | 1.904 | 1.385 | 1.038
140000 kPa, x2 = 0.5001 | 3.493 | 2.192 | 1.528 | 1.093
140000 kPa, x2 = 0.7999 | 7.143 | 3.693 | 2.144 | 1.339
